Results on 15 compounds are retold here after US20230078764A1 (Yumanity Therapeutics, Inc., priority 2019, published 2023).

The target of assay [1] is T1, human SCD1 (Homo sapiens, UniProt O00767).
T1 construct: expressed in transfected cells; host or cells: yeast strain with OLE1 deleted, plasmid-borne human SCD1 (selected in SD-Ura)
T1 sequence (O00767 1-359): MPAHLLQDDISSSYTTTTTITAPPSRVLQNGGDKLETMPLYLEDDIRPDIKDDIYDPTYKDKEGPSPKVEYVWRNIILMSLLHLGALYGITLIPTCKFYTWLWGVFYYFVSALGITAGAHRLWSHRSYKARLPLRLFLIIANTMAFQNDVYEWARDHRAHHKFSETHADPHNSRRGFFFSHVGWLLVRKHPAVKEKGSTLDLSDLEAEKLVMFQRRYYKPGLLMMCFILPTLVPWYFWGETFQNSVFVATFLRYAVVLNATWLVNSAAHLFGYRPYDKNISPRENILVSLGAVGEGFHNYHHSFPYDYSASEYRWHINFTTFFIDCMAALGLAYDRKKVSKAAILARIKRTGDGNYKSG
Kind of assay: Growth inhibition of yeast strain expressing human SCD1 as sole desaturase (OLE1 deleted), OD600 readout. Format: cell-based. The settings on record: yeast strain expressing human SCD1 as sole desaturase; growth (OD600) after 40 h at 30° C.; read-out: SCD1 IC50.

For assay [2], the target named is T2, human SCD5 (Homo sapiens, UniProt Q86SK9).
T2 construct: expressed in transfected cells; host or cells: yeast strain with OLE1 deleted, plasmid-borne human SCD5 (selected in SD-Ura)
T2 sequence (Q86SK9 1-330): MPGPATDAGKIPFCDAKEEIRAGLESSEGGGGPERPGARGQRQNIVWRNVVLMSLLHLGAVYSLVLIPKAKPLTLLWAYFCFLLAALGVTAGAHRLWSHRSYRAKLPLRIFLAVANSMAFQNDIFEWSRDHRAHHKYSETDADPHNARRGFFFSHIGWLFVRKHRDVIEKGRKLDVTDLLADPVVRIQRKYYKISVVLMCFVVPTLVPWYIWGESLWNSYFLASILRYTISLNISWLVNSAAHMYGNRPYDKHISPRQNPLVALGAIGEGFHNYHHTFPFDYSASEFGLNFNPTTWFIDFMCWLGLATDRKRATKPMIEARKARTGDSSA
Briefly: Growth inhibition of yeast strain expressing human SCD5 as sole desaturase (OLE1 deleted), OD600 readout. It is filed as cell-based. Particulars: yeast strain expressing human SCD5 as sole desaturase; growth (OD600) after 40 h at 30° C.; read-out: SCD5 IC50.

SMILES strings stand for the structures.

For `Cn1ccc(NC(=O)c2ccc(Cc3cccc(F)c3)cn2)n1` [Compound 95, 5-(3-fluorobenzyl)-N-(1-methyl-1H-pyrazol-3-yl)picolinamide], the IC50 is above 45000 nM in assay [1] and 10 nM in assay [2].
In the same order, the values of `Cn1ccc(C(=O)Nc2ccc(Cc3cc(F)cc(C#N)c3)cn2)n1` [Compound 96, N-(5-(3-cyano-5-fluorobenzyl)pyridin-2-yl)-1-methyl-1H-pyrazole-3-carboxamide] are 1080 nM and 130 nM.
As for `CCn1ccc(C(=O)Nc2ccc(Cc3cc(F)cc(F)c3)cn2)n1` [Compound 97, N-(5-(3,5-difluorobenzyl)pyridin-2-yl)-1-ethyl-1H-pyrazole-3-carboxamide], the IC50 in assay [1] is 1100 nM; in assay [2], 20 nM.
In the same order, the values of `CCn1ccc(C(=O)Nc2ccc(Cc3ccc(F)c(F)c3)cn2)n1` [Compound 98, N-(5-(3,4-difluorobenzyl)pyridin-2-yl)-1-ethyl-1H-pyrazole-3-carboxamide] are 2960 nM and 40 nM.
Taken in the same sequence, the figures for `CCn1ccc(C(=O)Nc2ccc(Cc3cc(F)cc(Cl)c3)cn2)n1` [Compound 99, N-(5-(3-chloro-5-fluorobenzyl)pyridin-2-yl)-1-ethyl-1H-pyrazole-3-carboxamide] were 140 nM and 10 nM.
Turning to `CCn1ccc(C(=O)Nc2ccc(Cc3cccc(Cl)c3)cn2)n1` [Compound 100, N-(5-(3-chlorobenzyl)pyridin-2-yl)-1-ethyl-1H-pyrazole-3-carboxamide], the results for the IC50 in assay [1] and in assay [2] were 1740 nM and 20 nM, respectively.
In the same order, the values of `CCn1ccc(C(=O)Nc2ccc(Cc3cccc(F)c3)cn2)n1` [Compound 101, 1-ethyl-N-(5-(3-fluorobenzyl)pyridin-2-yl)-1H-pyrazole-3-carboxamide] are 1080 nM and 20 nM.
As for `CCn1ccc(C(=O)Nc2ccc(Cc3ccc(F)cc3)cn2)n1` [Compound 102, 1-ethyl-N-(5-(4-fluorobenzyl)pyridin-2-yl)-1H-pyrazole-3-carboxamide], the IC50 came to 10300 nM in assay [1] and 80 nM in assay [2].
With `Cc1nnc(C(=O)Nc2ccc(Cc3cccc(Cl)c3)cn2)s1` [Compound 103, N-(5-(3-chlorobenzyl)pyridin-2-yl)-5-methyl-1,3,4-thiadiazole-2-carboxamide], the results for the IC50 in assay [1] and in assay [2] were 160 nM and 80 nM, respectively.
In the same order, the values of `Cc1nnc(C(=O)Nc2ccc(Cc3cccc(Cl)c3)cn2)o1` [Compound 104, N-(5-(3-chlorobenzyl)pyridin-2-yl)-5-methyl-1,3,4-oxadiazole-2-carboxamide] are 40 nM and 40 nM.
Turning to `CN1N=C(C(=O)Nc2ccc(Cc3cccc(Cl)c3)cn2)CC1=O` [Compound 105, N-(5-(3-chlorobenzyl)pyridin-2-yl)-1-methyl-5-oxo-4,5-dihydro-1H-pyrazole-3-carboxamide], the IC50 in assay [1] is above 45000 nM; in assay [2], 830 nM.
In the same order, the values of `Cn1nc(C(=O)Nc2ccc(Cc3cccc(F)c3)cn2)cc1O` [Compound 106, N-(5-(3-fluorobenzyl)pyridin-2-yl)-5-hydroxy-1-methyl-1H-pyrazole-3-carboxamide] are above 45000 nM and 1240 nM.
In the case of `Cc1cc(C(=O)Nc2ccc(Cc3cccc(F)c3)cn2)no1` [Compound 107, N-(5-(3-fluorobenzyl)pyridin-2-yl)-5-methylisoxazole-3-carboxamide], the IC50 in assay [1] is above 45000 nM; in assay [2] it was 1060 nM.
Taken in the same sequence, the figures for `Cn1cc(C(=O)Nc2ccc(Cc3cccc(Cl)c3)cn2)ncc1=O` [Compound 108, N-(5-(3-chlorobenzyl)pyridin-2-yl)-4-methyl-5-oxo-4,5-dihydropyrazine-2-carboxamide] were 7610 nM and 1400 nM.
Taken in the same sequence, the figures for `Cn1nccc(NC(=O)c2ccc(Cc3cccc(F)c3)cn2)c1=O` [Compound 109, 5-(3-fluorobenzyl)-N-(2-methyl-3-oxo-2,3-dihydropyridazin-4-yl)picolinamide] were 370 nM and 280 nM.
